{
  "source": "patent EP2732821A1",
  "about": "“Amphoteric polyamidoamines in the treatment of malaria” (Universita' Degli Studi Di Milano, priority 2012, dated 2014)",
  "key": {"P. berghei-infected mice": {"tested_on": "P. berghei-infected mice", "conditions": "single intravenous dose of 1 mg kg^-1, free drug; cited from earlier work"}, "[1]": {"tested_on": "P. falciparum 3D7 cultures", "test": "microbe, parasite or virus in culture", "conditions": "Plasmodium falciparum, 3D7, 48 h", "experimental": "Parasitemia of P. falciparum 3D7 cultures was adjusted to 1.5% with more than 90% of parasites at ring stage after sorbitol synchronization. 98 µL of this Plasmodium culture was plated in 96-well plates and incubated in the presence of phosphate-buffered saline (PBS) solutions of the free drugs or of polymer/drug conjugates (ISA 23-PQ obtained in Example3; AGMA1-PQ obtained in Example 4,; ISA 23-CQ obtained in Example 3; AGMA1-CQ obtained in Example 4) for 48 h at 37°C under a gas mixture of 92% N2, 5% CO2, and 3% O2. Parasitemia was determined by microscopic counting of blood smears, or by FACS. Table 2. Effect of free primaquine, ISA23-PQ and AGMA1-PQ on the growth of P. falciparum. The polymers were added to P. falciparum cultures at the ring stage, and incubated for 48 h before determining parasitemia."}, "[2]": {"tested_on": "P. yoelii XL-infected mice", "conditions": "for % parasitemia: day 4", "experimental": "Briefly, mice were inoculated 2 × 10^6 red blood cells from P. yoelii XL-infected mice by intraperitoneal (ip) injection. […] Tested compounds were prepared at appropriate doses in PBS. The control groups received PBS (n=3). The parasitemia was monitored daily by microscopic examination of Wright's-stained thin-blood smears. Activity was calculated by microscopic counting of blood smears from day 4."}, "P. yoelii-infected mice": {"tested_on": "P. yoelii-infected mice", "conditions": "oral, 100 mg kg^-1; cited from earlier work"}},
  "note": "Read-outs that look alike come from different tables or passages of the source.",
  "data": [
    {"smiles": "CCCCN(CCCC)CCC(O)c1cc2c(Cl)cc(Cl)cc2c2cc(C(F)(F)F)ccc12", "note": "(centres unmarked) [halofantrine]", "values": [
      {"measurement": "arrest of infection and survival", "setting": "P. berghei-infected mice", "result": "unable to arrest the infection or to prolong the survival of the animals"}
    ]},
    {"smiles": "CCN(CC)CCCC(C)Nc1ccnc2cc(Cl)ccc12", "note": "(centres unmarked) [CQ soluble, chloroquine]", "values": [
      {"measurement": "inhibition at 0.0026 µg/mL", "setting": "[1]", "result": 8.9, "unit": "%"},
      {"measurement": "inhibition at 0.00515 µg/mL", "setting": "[1]", "result": 22.6, "unit": "%"},
      {"measurement": "inhibition at 0.0103 µg/mL", "setting": "[1]", "result": 72.9, "unit": "%"},
      {"measurement": "inhibition at 0.0206 µg/mL", "setting": "[1]", "result": 82.1, "unit": "%"},
      {"measurement": "inhibition at 0.0414 µg/mL", "setting": "[1]", "result": 85.9, "unit": "%"},
      {"measurement": "inhibition at 0.0824 µg/mL", "setting": "[1]", "result": 86.4, "unit": "%"},
      {"measurement": "% parasitemia", "setting": "[2]; chloroquine 1 mg/kg per day ip for 4 days", "result": 37.7, "unit": "%"},
      {"measurement": "% parasitemia", "setting": "[2]; chloroquine 2.5 mg/kg", "result": 20.1, "unit": "%"},
      {"measurement": "elimination of parasitemia and cure of the animals", "setting": "[2]; intraperitoneal 4 × 1 mg kg^-1 doses of CQ, free CQ at the same or even a larger amount", "result": "unable to eliminate parasitemia or cure the animals"}
    ]},
    {"smiles": "COc1cc(/C=C/C(=O)CC(=O)/C=C/c2ccc(O)c(OC)c2)ccc1O", "note": "[curcumin]", "values": [
      {"measurement": "animals cured", "setting": "P. yoelii-infected mice", "result": "one third"}
    ]},
    {"smiles": "COc1cc(NC(C)CCCN)c2ncccc2c1", "note": "(centres unmarked) [PQ soluble, primaquine]", "values": [
      {"measurement": "inhibition at 0.44 µg/mL", "setting": "[1]", "result": 6.9, "unit": "%"},
      {"measurement": "inhibition at 0.88 µg/mL", "setting": "[1]", "result": 40.9, "unit": "%"},
      {"measurement": "inhibition at 1.76 µg/mL", "setting": "[1]", "result": 53.9, "unit": "%"},
      {"measurement": "inhibition at 3.52 µg/mL", "setting": "[1]", "result": 80.3, "unit": "%"},
      {"measurement": "inhibition at 7.04 µg/mL", "setting": "[1]", "result": 86.6, "unit": "%"},
      {"measurement": "inhibition at 14.1 µg/mL", "setting": "[1]", "result": 88.2, "unit": "%"}
    ]}
  ]
}
